Data: patent publication US8551984B2, “Aminopyrimidines as SYK inhibitors” (Merck Sharp & Dohme Corp., priority 2009, dated 2013)

Target: recombinant human SYK (GST-hSYK fusion protein) (Homo sapiens, UniProt P43405)
Assay: biochemical
[1] = rhSYK Activity (IC50), recombinant human GST-SYK 5 pM, ATP 25 μM, biotinylated substrate peptide 250 nM, HTRF, 10-dose titration

Excerpt: Homogeneous Time-Resolved Fluorescence (HTRF) Assay for the Recombinant Human SYK Enzyme:

Nc1cc(Nc2nccc(OC3CCNCC3)n2)cc(-c2cnc(C3(O)CCC3)s2)c1 [Example 109-12]
IC50 (rhSYK Activity, Table 109): < 100 nM

Cc1cc(Nc2nccc(C(F)(F)F)n2)cc(-c2cnc(C(O)C(C)(C)N3CCC(C(=O)O)CC3)s2)c1 (stereo not drawn) [Example 33D-23]
IC50 (rhSYK Activity, Table 33D): < 100 nM

Cc1cc(Nc2nccc(C(F)(F)F)n2)cc(-c2cnc(CNCCCCO)s2)c1 [Example 88A-20]
IC50 [1]: < 100 nM

Cc1cc(Nc2nccc(C(F)(F)F)n2)cc(-c2cnc(C3(C(N)=O)CCCCC3)s2)c1 [Example 129, 1-[5-(3-methyl-5-{[4-(trifluoromethyl)pyrimidin-2-yl]amino}phenyl)-1,3-thiazol-2-yl]cyclohexanecarboxamide]
IC50 [1]: < 100 nM

Cc1cc(Nc2nccc(C(C)C)n2)cc(-c2cnc([C@]3(O)CC[C@@H](C(=O)O)[C@@H](C)C3)s2)c1 [Example 113A-26]
IC50 (rhSYK Activity, Table 113A): < 100 nM

COc1nc(Nc2cc(C)cc(-c3cnc([C@]4(O)CC[C@@H](C(=O)O)[C@@H](C)C4)s3)c2)ncc1Cl [Example 113A-37]
IC50 (rhSYK Activity, Table 113A): < 100 nM

Cc1cc(Nc2nccc(C(F)(F)F)n2)cc(-c2cnc(C3(O)CCN(C(=O)CC4CCOCC4)CC3)s2)c1 [Example 54A-53]
IC50 (RHSYK Activity, Table 54A): < 100 nM

Cc1cc(Nc2nccc(C(F)(F)F)n2)cc(-c2cnc(C3(O)C4CCCC3CC(C(=O)O)C4)s2)c1 (stereo not drawn) [Example 33C-3]
IC50 (rhSYK Activity, Table 33C): < 100 nM

Cc1cc(Nc2nccc(C(F)(F)F)n2)cc(-c2cnc(C3(O)CCN(C(=O)C4(O)CCC4)C3)s2)c1 (stereo not drawn) [54B-30]
IC50 (rhSYK Activity, Table 54B): < 100 nM

COC(=O)CNS(=O)(=O)C(C)(C)c1ncc(-c2cc(C)cc(Nc3nccc(C(F)(F)F)n3)c2)s1 [74A-14]
IC50 (rhSYK Activity, Table 74A): < 100 nM

Cc1cc(Nc2nccc(C(F)(F)F)n2)cc(-c2cnc(C3(O)CCN(S(=O)(=O)C(F)(F)F)CC3)s2)c1 [Example 54A-2]
IC50 (RHSYK Activity, Table 54A): < 100 nM

Cc1cc(Nc2nccc(C(F)(F)F)n2)cc(-c2cnc(C3(N[S+]([O-])C(F)F)COC3)s2)c1 (stereo not drawn) [Example 61B-8]
IC50 (rhSYK Activity, Table 61B): < 100 nM

Cc1cc(Nc2nccc(C(F)(F)F)n2)cc(-c2cnc(C(C)(O)c3ccc(C(=O)O)s3)s2)c1 (stereo not drawn) [Example 33D-20]
IC50 (rhSYK Activity, Table 33D): < 100 nM

Cc1cc(Nc2nccc(C(F)(F)F)n2)cc(-c2cnc(C3(O)CCCN(C(=O)C4(C(=O)O)CC4)CC3)s2)c1 (stereo not drawn) [Example 54D-70]
IC50 (rhSYK Activity, Table 54D): < 100 nM

Cc1cc(Nc2nccc(OC3CNC3)n2)cc(-c2cnc(C3(O)CCC3)s2)c1 [Example 93, 1-[5-(3-{[4-(azetidin-3-yloxy)pyrimidin-2-yl]amino}-5-methylphenyl)-1,3-thiazol-2-yl]cyclobutanol]
IC50 [1]: < 100 nM

COC(=O)[C@H]1CC[C@](O)(c2ncc(-c3cc(C)cc(Nc4nccc(C5CCC5)n4)c3)s2)CC1(C)C [Example 101-6]
IC50 [1]: < 100 nM

Cc1cc(Nc2nccc(C(F)(F)F)n2)cc(-c2cnc(C3CCCNC(=O)C3)s2)c1 (stereo not drawn) [Example 36B-3]
IC50 (rhSYK Activity, Table 36B): < 100 nM

Cc1cc(Nc2nccc(C(F)(F)F)n2)cc(-c2cnc(C(N)=O)s2)c1 [Example 87A-2]
IC50 [1]: 100 to 1000 nM

CCOC(=O)[C@H]1CC[C@](O)(c2ncc(-c3cccc(Nc4nccc(C(F)(F)F)n4)c3)s2)CC1 [Example 33A-25]
IC50 (rhSYK Activity, Table 33-A): < 100 nM

Cc1cc(Nc2nccc(C(F)(F)F)n2)cc(-c2cnc(-c3cnn(CCO)c3)s2)c1 [Example 115, 2-{4-[5-(3-methyl-5-{[4-(trifluoromethyl)pyrimidin-2-yl]amino}phenyl)-1,3-thiazol-2-yl]-1H-pyrazol-1-yl}ethanol]
IC50 [1]: < 100 nM

Cc1cc(Nc2nccc(OCc3ccccn3)n2)cc(-c2cnc(C3(O)CCC3)s2)c1 [Example 94A-3]
IC50 [1]: < 100 nM

Cc1cc(Nc2nccc(C(F)(F)F)n2)cc(-c2cnc(CNC(=O)NC(C)C)s2)c1 [Example 88A-63]
IC50 [1]: < 100 nM

Cc1cc(Nc2nccc(C(F)(F)F)n2)cc(-c2cnc(C3(O)CCCN(C(=O)c4ccc(O)cc4)CC3)s2)c1 (stereo not drawn) [Example 54D-84]
IC50 (rhSYK Activity, Table 54D): < 100 nM

Cc1cc(Nc2nccc(C(F)(F)F)n2)cc(-c2cnc(C(C)(C)C(N)=O)s2)c1 [Example 85A-1]
IC50 [1]: < 100 nM

Cc1cc(Nc2nccc(C(F)(F)F)n2)cc(-c2cnc(C3(NS(C)(=O)=O)CCC3)s2)c1 [Example 61B-4]
IC50 (rhSYK Activity, Table 61B): < 100 nM

CN1CCOC(c2ncc(-c3cccc(Nc4nccc(C(F)(F)F)n4)c3)s2)C1 (stereo not drawn) [Example 21-2]
IC50 (rhSYK Activity, Table 21): < 100 nM

O=C1CC(c2ncc(-c3cccc(Nc4nccc(C(F)(F)F)n4)c3)s2)CN1 (stereo not drawn) [Example 21-14]
IC50 (rhSYK Activity, Table 21): < 100 nM

CCOC(=O)CC(=O)N1CCCC(O)(c2ncc(-c3cc(C)cc(Nc4nccc(C(C)C)n4)c3)s2)CC1 (stereo not drawn) [Example 54D-30]
IC50 (rhSYK Activity, Table 54D): < 100 nM

COC(=O)[C@H]1CC[C@](O)(c2ncc(-c3cc(C)cc(Nc4ncc5c(n4)CCC5)c3)s2)CC1(C)C [Example 100A-29]
IC50 [1]: 100 to 1000 nM

Cc1cc(Nc2nccc(C(F)(F)F)n2)cc(-c2cnc(/C=C/c3ccc(C(=O)O)cc3)s2)c1 [Example 147]
IC50 [1]: < 100 nM

Cc1cc(Nc2nccc(C(F)(F)F)n2)cc(-c2cnc([C@]3(O)CC[C@@H](NC(=O)Cc4c[nH]cn4)CC3)s2)c1 [Example 54E-10]
IC50 (rhSYK Activity, Table 54E): < 100 nM

CCN(C)C(=O)c1ncc(-c2cc(C)cc(Nc3nccc(C(F)(F)F)n3)c2)s1 [Example 87A-28]
IC50 [1]: 100 to 1000 nM

Cc1cc(Nc2nccc(C(F)(F)F)n2)cc(-c2cnc(C3(O)CCN(C(=O)Cc4c[nH]cn4)CC3)s2)c1 [Example 54A-36]
IC50 (RHSYK Activity, Table 54A): < 100 nM

COc1nc(Nc2cc(C)cc(-c3cnc(C4(O)CCC(O)CC4)s3)c2)ncc1Cl (stereo not drawn) [8A-5]
IC50 (rhSYK Activity, Table 8A): < 100 nM

Cc1cc(Nc2nccc(C(F)(F)F)n2)cc(-c2cnc(CC(C)(C)C(=O)N(C)C)s2)c1 [Example 79-11]
IC50 [1]: < 100 nM

COc1nc(Nc2cc(C)cc(-c3cnc(C4(NS(N)(=O)=O)COC4)s3)c2)ncc1Cl [Example 63-2]
IC50 (rhSYK Activity, Table 63): < 100 nM

Cc1cc(Nc2nccc(C(F)(F)F)n2)cc(-c2cnc(C(C)(C)S(N)(=O)=O)s2)c1 [74A-1]
IC50 (rhSYK Activity, Table 74A): < 100 nM

Cc1cc(Nc2nccc(C(F)(F)F)n2)cc(-c2cnc([C@]3(O)CC[C@@H](NC(=O)c4ccc(O)c(F)c4)CC3)s2)c1 [Example 54E-36]
IC50 (rhSYK Activity, Table 54E): < 100 nM

Cc1cc(Nc2nccc(C3CC3)n2)cc(-c2cnc(C3(O)CCC(C(=O)O)C(C)(C)C3)s2)c1 (stereo not drawn) [Example 33A-71]
IC50 (rhSYK Activity, Table 33-A): < 100 nM

CN1CCCCCC1c1ncc(-c2cccc(Nc3nccc(C(F)(F)F)n3)c2)s1 (stereo not drawn) [Example 21-18]
IC50 (rhSYK Activity, Table 21): 100 to 1000 nM

COCCCOc1ccnc(Nc2cc(C)cc(-c3cnc([C@]4(O)CC[C@@H](C(=O)O)CC4)s3)c2)n1 [Example 113A-2]
IC50 (rhSYK Activity, Table 113A): < 100 nM

Cc1cc(Nc2nccc(C(F)(F)F)n2)cc(-c2cnc(C3(O)CCCN(C(=O)CO)CC3)s2)c1 (single isomer, unassigned) [Example 54D-122]
IC50 (rhSYK Activity, Table 54D): < 100 nM

COC(=O)CCCN1CCC(O)(c2ncc(-c3cc(C)cc(Nc4nccc(C(F)(F)F)n4)c3)s2)CC1 [Example 54A-73]
IC50 (RHSYK Activity, Table 54A): < 100 nM

Cc1cc(Nc2nccc(C(F)(F)F)n2)cc(-c2cnc(C3(S(C)(=O)=O)CCC3)s2)c1 [Example 74B-2]
IC50 (rhSYK Activity, Table 74B): < 100 nM

CC1(C)CC(O)(c2ncc(-c3cc(Nc4nccc(C(F)(F)F)n4)cc(C(F)F)c3)s2)CCC1C(=O)O (single isomer, unassigned) [Example 33A-57]
IC50 (rhSYK Activity, Table 33-A): < 100 nM

Cc1cc(Nc2nccc(C(F)(F)F)n2)cc(-c2cnc(C3(O)CCCN(C(=O)C4CCCO4)CC3)s2)c1 (stereo not drawn) [Example 54D-40]
IC50 (rhSYK Activity, Table 54D): < 100 nM

Cc1cc(Nc2nccc(C(F)(F)F)n2)cc(-c2cnc(C3(O)CCN(C(N)=O)C3)s2)c1 (stereo not drawn) [54B-2]
IC50 (rhSYK Activity, Table 54B): < 100 nM

Cc1cc(Nc2nccc(OCCN3CCOCC3=O)n2)cc(-c2cnc(C3(O)CCC3)s2)c1 [Example 108A-3]
IC50 (rhSYK Activity, Table 108A): < 100 nM

Cc1cc(Nc2nccc(OCCOCc3ccccc3)n2)cc(-c2cnc(C3(O)CCC3)s2)c1 [Example 94A-9]
IC50 [1]: 100 to 1000 nM

Cc1cc(Nc2nccc(OCCO)n2)cc(-c2cnc(C3(O)CCC3)s2)c1 [Example 108A-34]
IC50 (rhSYK Activity, Table 108A): < 100 nM

Cc1cc(Nc2nccc(C(F)(F)F)n2)cc(-c2cnc(C3(O)CCN(C(=O)CCn4cncn4)CC3)s2)c1 [Example 54A-51]
IC50 (RHSYK Activity, Table 54A): < 100 nM

Cc1cc(Nc2ncc(F)cn2)cc(-c2cnc([C@]3(O)CC[C@](C)(C(=O)O)CC3)s2)c1 [Example 33A-4]
IC50 (rhSYK Activity, Table 33-A): < 100 nM

Cc1cc(Nc2nccc(C(F)(F)F)n2)cc(-c2cnc(C(=O)N3CCC(C(=O)O)CC3)s2)c1 [Example 87B-19]
IC50 [1]: < 100 nM

Cc1cc(Nc2nccc(C(F)(F)F)n2)cc(-c2cnc(C(=O)N3CCn4ccnc4C3)s2)c1 [Example 87B-9]
IC50 [1]: < 100 nM

Cc1cc(Nc2nccc(C(F)(F)F)n2)cc(-c2cnc(C(C)(O)c3ccc(OCC(=O)O)cc3)s2)c1 (stereo not drawn) [Example 33D-12]
IC50 (rhSYK Activity, Table 33D): < 100 nM

CCC(=O)N1CCCC(O)(c2ncc(-c3cc(C)cc(Nc4nccc(C(F)(F)F)n4)c3)s2)CC1 (stereo not drawn) [Example 54D-5]
IC50 (rhSYK Activity, Table 54D): < 100 nM

CCOC(=O)C1CCC(O)(c2ncc(-c3cc(C)cc(Nc4nccc(C(C)(C)C)n4)c3)s2)CC1C (stereo not drawn) [Example 101-1]
IC50 [1]: < 100 nM

Cc1cc(Nc2nccc(C3CC3)n2)cc(-c2cnc(C3(NC(=O)NC(N)=O)CCC3)s2)c1 [65-4]
IC50 (rhSYK Activity, Table 65): < 100 nM

Cc1cc(Nc2nccc(C(F)(F)F)n2)cc(-c2cnc(CN3CCC(C)(O)C3)s2)c1 (stereo not drawn) [Example 88B-2]
IC50 [1]: < 100 nM

Cc1cc(Nc2nccc(C(F)(F)F)n2)cc(-c2cnc(C(C)(O)c3ccc(OC(C)C(=O)O)cc3)s2)c1 (stereo not drawn) [Example 33D-13]
IC50 (rhSYK Activity, Table 33D): < 100 nM

Cc1cc(Nc2nccc(C(F)(F)F)n2)cc(-c2cnc(C(=O)NCCc3c[nH]cn3)s2)c1 [Example 87A-15]
IC50 [1]: < 100 nM

Cc1cc(Nc2nccc(C(F)(F)F)n2)cc(-c2cnc(C3(N)CCNC(=O)CC3)s2)c1 (stereo not drawn) [Example 162, 5-amino-5-[5-(3-methyl-5-{[4-(trifluoromethyl)pyrimidin-2-yl]amino}phenyl)-1,3-thiazol-2-yl]azepan-2-one]
IC50 [1]: < 100 nM

Cc1cc(Nc2nccc(C(F)(F)F)n2)cc(-c2cnc([C@]3(O)CC[C@H](CC(=O)O)CC3)s2)c1 [Example 33A-16]
IC50 (rhSYK Activity, Table 33-A): < 100 nM
